According to patent publication US9579314B2 (priority 2015, dated 2017):
Several values for one entry are separate records, joined by “and”; a condition that tells them apart may be missing. Equal entries are not always repeated. Structures can show the parent of a compound that is named as a salt.

Key:
Human M3 receptor = Human M3 receptor (Homo sapiens, UniProt P20309); conditions: read-out: M3 binding affinity
Human β2 adrenoceptor = Human β2 adrenoceptor (Homo sapiens, UniProt P07550); conditions: read-out: B2 binding affinity
Chain of Human β2 adrenoceptor (P07550 whole entry): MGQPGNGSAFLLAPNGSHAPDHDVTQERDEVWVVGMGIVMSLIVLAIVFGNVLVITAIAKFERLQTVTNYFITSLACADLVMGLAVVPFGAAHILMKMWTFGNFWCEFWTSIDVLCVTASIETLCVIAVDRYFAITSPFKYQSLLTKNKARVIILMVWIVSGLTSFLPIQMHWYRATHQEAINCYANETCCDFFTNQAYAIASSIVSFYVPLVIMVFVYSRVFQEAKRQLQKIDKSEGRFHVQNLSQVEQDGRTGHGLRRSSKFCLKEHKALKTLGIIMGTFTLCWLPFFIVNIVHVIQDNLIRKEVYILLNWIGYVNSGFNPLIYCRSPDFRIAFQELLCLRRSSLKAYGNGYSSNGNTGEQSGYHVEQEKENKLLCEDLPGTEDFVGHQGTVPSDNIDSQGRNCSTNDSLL

Chain of Human M3 receptor (P20309 whole entry): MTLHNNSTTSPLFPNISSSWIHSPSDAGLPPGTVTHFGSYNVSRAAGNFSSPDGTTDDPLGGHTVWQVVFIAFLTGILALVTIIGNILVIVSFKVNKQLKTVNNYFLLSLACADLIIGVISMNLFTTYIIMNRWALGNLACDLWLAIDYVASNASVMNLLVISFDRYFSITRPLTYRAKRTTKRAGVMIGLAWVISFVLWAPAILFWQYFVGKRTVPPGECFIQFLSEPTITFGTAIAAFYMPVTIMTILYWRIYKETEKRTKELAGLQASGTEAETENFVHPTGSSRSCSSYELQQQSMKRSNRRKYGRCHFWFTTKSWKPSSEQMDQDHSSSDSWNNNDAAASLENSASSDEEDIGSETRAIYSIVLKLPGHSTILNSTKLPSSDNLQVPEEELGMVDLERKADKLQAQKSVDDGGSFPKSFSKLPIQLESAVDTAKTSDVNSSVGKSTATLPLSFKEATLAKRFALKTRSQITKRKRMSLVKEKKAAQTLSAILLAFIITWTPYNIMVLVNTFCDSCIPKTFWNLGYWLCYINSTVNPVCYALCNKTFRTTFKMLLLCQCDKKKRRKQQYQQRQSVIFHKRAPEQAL

Q: Which results are given for `O=C(c1ccc(CCNC[C@H](O)c2ccc(O)c3[nH]c(=O)ccc23)cc1)N1CC(COc2cccc([C@](O)(C(=O)OCC3CCN(Cc4ccccc4)CC3)c3ccccc3)c2)C1` [Compound 42, (S)-(1-benzylpiperidin-4-yl)methyl 2-hydroxy-2-(3-((1-(4-(2-(((R)-2-hydroxy-2-(8-hydroxy-2-oxo-1,2-dihydroquinolin-5-yl)ethyl)amino)ethyl)benzoyl)azetidin-3-yl)methoxy)phenyl)-2-phenylacetate]?
A: IC50 (Human M3 receptor): < 0.3 nM; IC50 (Human β2 adrenoceptor): < 0.3 nM

Q: With `COc1cc(NC(=O)COc2cccc([C@](O)(C(=O)OCC3CCN(Cc4ccccc4)CC3)c3ccccc3)c2)ccc1CNC[C@H](O)c1ccc(O)c2[nH]c(=O)ccc12` [Compound 42A, (S)-(1-benzylpiperidin-4-yl)methyl 2-hydroxy-2-(3-(2-((4-((((R)-2-hydroxy-2-(8-hydroxy-2-oxo-1,2-dihydroquinolin-5-yl)ethyl)amino)methyl)-3-methoxyphenyl)amino)-2-oxoethoxy)phenyl)-2-phenylacetate] as the compound, how does the IC50 (Human M3 receptor) read?
A: < 0.3 nM

Q: What about the IC50 (Human β2 adrenoceptor) of the same compound?
A: 0.3 to 3 nM

Q: How did the IC50 (Human M3 receptor) turn out when `COc1cc(NC(=O)COc2cccc([C@](O)(C(=O)OCC3CCN(Cc4ccccc4)CC3)c3ccccc3)c2)c(F)cc1CNC[C@H](O)c1ccc(O)c2[nH]c(=O)ccc12` [Compound 42B, (1-benzylpiperidin-4-yl)methyl (S)-2-(3-(2-((2-fluoro-4-((((R)-2-hydroxy-2-(8-hydroxy-2-oxo-1,2-dihydroquinolin-5-yl)ethyl)amino)methyl)-5-methoxyphenyl)amino)-2-oxoethoxy)phenyl)-2-hydroxy-2-phenylacetate] was run?
A: < 0.3 nM and 0.3 to 3 nM

Q: What about the IC50 (Human β2 adrenoceptor) of the same compound?
A: < 0.3 nM

Q: How did the IC50 (Human M3 receptor) turn out when `O=C(NCc1ccc(COc2cccc([C@](O)(C(=O)OCC3CCN(Cc4ccccc4)CC3)c3ccccc3)c2)cc1)c1ccc(CCNC[C@H](O)c2ccc(O)c3[nH]c(=O)ccc23)cc1` [Compound 42C, (1-benzylpiperidin-4-yl)methyl (S)-2-hydroxy-2-(3-((4-((4-(2-(((R)-2-hydroxy-2-(8-hydroxy-2-oxo-1,2-dihydroquinolin-5-yl)ethyl)amino)ethyl)benzamido)methyl)benzyl)oxy)phenyl)-2-phenylacetate] was run?
A: 0.3 to 3 nM

Q: What about the IC50 (Human β2 adrenoceptor) of the same compound?
A: < 0.3 nM

Q: For `O=C(NCc1ccc(COc2cccc([C@](O)(C(=O)OCC3CCN(Cc4ccccc4)CC3)c3ccccc3)c2)cc1)c1ccc(CNC[C@H](O)c2ccc(O)c3[nH]c(=O)ccc23)cc1` [Compound 42D, (1-benzylpiperidin-4-yl)methyl (S)-2-hydroxy-2-(3-((4-((4-((((R)-2-hydroxy-2-(8-hydroxy-2-oxo-1,2-dihydroquinolin-5-yl)ethyl)amino)methyl)benzamido)methyl)benzyl)oxy)phenyl)-2-phenylacetate], which IC50 (Human M3 receptor) is on record?
A: 0.3 to 3 nM

Q: And the IC50 (Human β2 adrenoceptor)?
A: < 0.3 nM

Q: Which results are given for `COc1cc(CNC[C@H](O)c2ccc(O)c3[nH]c(=O)ccc23)ccc1C(=O)NCc1ccc(COc2cccc([C@](O)(C(=O)OCC3CCN(Cc4ccccc4)CC3)c3ccccc3)c2)cc1` [Compound 42E, (1-benzylpiperidin-4-yl)methyl (S)-2-hydroxy-2-(3-((4-((4-((((R)-2-hydroxy-2-(8-hydroxy-2-oxo-1,2-dihydroquinolin-5-yl)ethyl)amino)methyl)-2-methoxybenzamido)methyl)benzyl)oxy)phenyl)-2-phenylacetate]?
A: IC50 (Human M3 receptor): 0.3 to 3 nM; IC50 (Human β2 adrenoceptor): < 0.3 nM

Q: For `COc1cc(C(=O)NCc2ccc(COc3cccc([C@](O)(C(=O)OCC4CCN(Cc5ccccc5)CC4)c4ccccc4)c3)cc2)ccc1CNC[C@H](O)c1ccc(O)c2[nH]c(=O)ccc12` [Compound 42F, (1-benzylpiperidin-4-yl)methyl (S)-2-hydroxy-2-(3-((4-((4-((((R)-2-hydroxy-2-(8-hydroxy-2-oxo-1,2-dihydroquinolin-5-yl)ethyl)amino)methyl)-3-methoxybenzamido)methyl)benzyl)oxy)phenyl)-2-phenylacetate], which IC50 (Human M3 receptor) is on record?
A: 0.3 to 3 nM

Q: And the IC50 (Human β2 adrenoceptor)?
A: < 0.3 nM

Q: What does the source list for `O=C(NCCCNC[C@H](O)c1ccc(O)c2[nH]c(=O)ccc12)c1ccc(COc2cccc([C@](O)(C(=O)OCC3CCN(Cc4ccccc4)CC3)c3ccccc3)c2)cc1` [Compound 43, (S)-(1-Benzylpiperidin-4-yl)methyl 2-hydroxy-2-(3-((4-((3-(((R)-2-hydroxy-2-(8-hydroxy-2-oxo-1,2-dihydroquinolin-5-yl)ethyl)amino)propyl)carbamoyl)benzyl)oxy)phenyl)-2-phenylacetate]?
A: IC50 (Human M3 receptor): < 0.3 nM; IC50 (Human β2 adrenoceptor): < 0.3 nM

Q: For `O=C(NCCCNC[C@H](O)c1ccc(O)c2[nH]c(=O)ccc12)c1ccc(COc2cccc([C@@](O)(C(=O)OCC3CCN(Cc4ccccc4)CC3)c3ccccc3)c2)cc1` [Compound 44, (R)-(1-Benzylpiperidin-4-yl)methyl 2-hydroxy-2-(3-((4-((3-(((R)-2-hydroxy-2-(8-hydroxy-2-oxo-1,2-dihydroquinolin-5-yl)ethyl)amino)propyl)carbamoyl)benzyl)oxy)phenyl)-2-phenylacetate], which IC50 (Human M3 receptor) is on record?
A: 0.3 to 3 nM

Q: And the IC50 (Human β2 adrenoceptor)?
A: < 0.3 nM

Q: How did the IC50 (Human M3 receptor) turn out when `O=C(c1cccc(COc2cccc([C@](O)(C(=O)OCC3CCN(Cc4ccccc4)CC3)c3ccccc3)c2)c1)N(CCCNC[C@H](O)c1ccc(O)c2[nH]c(=O)ccc12)Cc1ccccc1` [Compound 45, (S)-(1-Benzylpiperidin-4-yl)methyl 2-(3-((3-(benzyl(3-(((R)-2-hydroxy-2-(8-hydroxy-2-oxo-1,2-dihydroquinolin-5-yl)ethyl)amino)propyl)carbamoyl)benzyl)oxy)phenyl)-2-hydroxy-2-phenylacetate] was run?
A: 0.3 to 3 nM

Q: What about the IC50 (Human β2 adrenoceptor) of the same compound?
A: 0.3 to 3 nM

Q: `O=C(NCCCCNC[C@H](O)c1ccc(O)c2[nH]c(=O)ccc12)c1cccc(C(O)(C(=O)OCC2CCN(Cc3ccccc3)CC2)c2ccccc2)c1` (stereo partly drawn) [Compound 47, (1-benzylpiperidin-4-yl)methyl 2-hydroxy-2-(3-((4-(((R)-2-hydroxy-2-(8-hydroxy-2-oxo-1,2-dihydroquinolin-5-yl)ethyl)amino)butyl)carbamoyl)phenyl)-2-phenylacetate diformate] was tested. Which IC50 (Human M3 receptor) did it give?
A: 0.3 to 3 nM

Q: And the IC50 (Human β2 adrenoceptor)?
A: < 0.3 nM

Q: How did the IC50 (Human M3 receptor) turn out when `O=C(NCCCNC(=O)c1cccc(C(O)(C(=O)OCC2CCN(Cc3ccccc3)CC2)c2ccccc2)c1)c1ccc(CNC[C@H](O)c2ccc(O)c3[nH]c(=O)ccc23)cc1` (stereo partly drawn) [Compound 50, (1-benzylpiperidin-4-yl)methyl 2-hydroxy-2-(3-((3-(4-((((R)-2-hydroxy-2-(8-hydroxy-2-oxo-1,2-dihydroquinolin-5-yl)ethyl)amino)methyl)benzamido)propyl)-carbamoyl)phenyl)-2-phenylacetate diformate] was run?
A: 0.3 to 3 nM

Q: What about the IC50 (Human β2 adrenoceptor) of the same compound?
A: > 3 nM

Q: What does the source list for `O=C(OCC1CCN(Cc2ccccc2)CC1)C(O)(c1ccccc1)c1ccc(OCCCCCNC[C@H](O)c2ccc(O)c3[nH]c(=O)ccc23)cc1` (stereo partly drawn) [Compound 51, (1-benzylpiperidin-4-yl)methyl 2-hydroxy-2-(4-((5-(((R)-2-hydroxy-2-(8-hydroxy-2-oxo-1,2-dihydroquinolin-5-yl)ethyl)amino)pentyl)oxy)phenyl)-2-phenylacetate diformate]?
A: IC50 (Human M3 receptor): 0.3 to 3 nM; IC50 (Human β2 adrenoceptor): < 0.3 nM

Q: What does the source list for `O=C(NCc1ccc(COc2ccc(C(O)(C(=O)OCC3CCN(Cc4ccccc4)CC3)c3ccccc3)cc2)cc1)c1ccc(CNC[C@H](O)c2ccc(O)c3[nH]c(=O)ccc23)cc1` (stereo partly drawn) [Compound 53, (1-benzylpiperidin-4-yl)methyl 2-hydroxy-2-(4-((4-((4-((((R)-2-hydroxy-2-(8-hydroxy-2-oxo-1,2-dihydroquinolin-5-yl)ethyl)amino)methyl)benzamido)methyl)-benzyl)oxy)phenyl)-2-phenylacetate diformate]?
A: IC50 (Human M3 receptor): > 3 nM; IC50 (Human β2 adrenoceptor): > 3 nM

Q: Which results are given for `O=C(Nc1cccc(C(O)(C(=O)OCC2CCN(Cc3ccccc3)CC2)c2ccccc2)c1)OCCCCCNC[C@H](O)c1ccc(O)c2[nH]c(=O)ccc12` (stereo partly drawn) [Compound 54, (1-benzylpiperidin-4-yl)methyl 2-hydroxy-2-(3-((((5-(((R)-2-hydroxy-2-(8-hydroxy-2-oxo-1,2-dihydroquinolin-5-yl)ethyl)amino)pentyl)oxy)carbonyl)amino)-phenyl)-2-phenylacetate bis hydrochloride]?
A: IC50 (Human M3 receptor): 0.3 to 3 nM; IC50 (Human β2 adrenoceptor): < 0.3 nM

Q: What does the source list for `O=C(NCCCNC(=O)c1ccc(CNC[C@H](O)c2ccc(O)c3[nH]c(=O)ccc23)cc1)Nc1cccc(C(O)(C(=O)OCC2CCN(Cc3ccccc3)CC2)c2ccccc2)c1` (stereo partly drawn) [Compound 56, (1-benzylpiperidin-4-yl)methyl 2-hydroxy-2-(3-(3-(3-(4-((((R)-2-hydroxy-2-(8-hydroxy-2-oxo-1,2-dihydroquinolin-5-yl)ethyl)amino)methyl)benzamido)-propyl)ureido)phenyl)-2-phenylacetate diformate]?
A: IC50 (Human M3 receptor): > 3 nM; IC50 (Human β2 adrenoceptor): > 3 nM

Q: What does the source list for `O=C(COc1cccc([C@](O)(C(=O)OCC2CCN(Cc3ccccc3)CC2)c2ccccc2)c1)NCCNC(=O)c1ccc(CNC[C@H](O)c2ccc(O)c3[nH]c(=O)ccc23)cc1` [Compound 57, (1-Benzylpiperidin-4-yl)methyl (S)-2-hydroxy-2-(3-(2-((2-(4-((((R)-2-hydroxy-2-(8-hydroxy-2-oxo-1,2-dihydroquinolin-5-yl)ethyl)amino)methyl)benzamido)ethyl)amino)-2-oxoethoxy)phenyl)-2-phenylacetate]?
A: IC50 (Human M3 receptor): 0.3 to 3 nM; IC50 (Human β2 adrenoceptor): 0.3 to 3 nM

Q: Which results are given for `O=C(COc1cccc([C@](O)(C(=O)OCC2CCN(Cc3ccccc3)CC2)c2ccccc2)c1)N1CCN(C(=O)c2ccc(CNC[C@H](O)c3ccc(O)c4[nH]c(=O)ccc34)cc2)CC1` [Compound 58, (1-benzylpiperidin-4-yl)methyl (S)-2-hydroxy-2-(3-(2-(4-(4-((((R)-2-hydroxy-2-(8-hydroxy-2-oxo-1,2-dihydroquinolin-5-yl)ethyl)amino)methyl)benzoyl)piperazin-1-yl)-2-oxoethoxy)phenyl)-2-phenylacetate]?
A: IC50 (Human M3 receptor): 0.3 to 3 nM; IC50 (Human β2 adrenoceptor): 0.3 to 3 nM

Q: For `O=C(NC1CCN(C(=O)COc2cccc([C@](O)(C(=O)OCC3CCN(Cc4ccccc4)CC3)c3ccccc3)c2)CC1)c1ccc(CNC[C@H](O)c2ccc(O)c3[nH]c(=O)ccc23)cc1` [Compound 59, (1-benzylpiperidin-4-yl)methyl (S)-2-hydroxy-2-(3-(2-(4-(4-((((R)-2-hydroxy-2-(8-hydroxy-2-oxo-1,2-dihydroquinolin-5-yl)ethyl)amino)methyl)benzamido)piperidin-1-yl)-2-oxoethoxy)phenyl)-2-phenylacetate], which IC50 (Human M3 receptor) is on record?
A: 0.3 to 3 nM

Q: And the IC50 (Human β2 adrenoceptor)?
A: < 0.3 nM
